Experiment [1] deals with T1, A-DA lipid probe targets in Neuro2a cells (Mus musculus, UniProt P45377).
T1 construct: endogenous in cells; host or cells: Neuro2a
As to the kind of experiment: In situ competitive SILAC profiling with A-DA probe in Neuro2a cells. Conditions: Neuro2A cells, A-DA 5 μM, drug 25 μM. It is filed as cell-based.

In experiment [2] the test system is PGF2α-EA formation in PMA-stimulated A549 cells. As to the kind of experiment: Oxidative metabolism of AEA in A549 cells (prostamide formation). The settings on record: MJN228, KML110 5 and 25 μM, others 25 μM, AEA 20 μM. In kind it is cell-based, human. The method, then:
The media from the PMA-stimulated cells was removed and cells were washed with DPBS (2×3 mL) before adding freshly prepared media solutions containing vehicle or compound (2 mL/plate). After incubating for 30 min at 37° C., a solution of BHT-stabilized AEA (60 μM AEA; 60 μM BHT) in the same media was added to the cells (1.0 mL/plate) and incubated for 1 h. The media from the cells was then transferred to glass vials containing MS internal standards [PGE2-EA-d4 (25 pmol)], centrifuged (1,500×g, 5 min) to remove detached cells and then loaded onto pre-equilibrated reversed phase SPE cartridges (Phenomenex, Strata-X 33 μm, 60 mg/3 mL). After washing cartridges with 5% MeOH/H2O (3 mL), prostamides were eluted with MeOH (1.0 mL) and the eluent was concentrated under a stream of N2. Concentrated samples were stored at −80° C. until the day of analysis when they were reconstituted in Mobile Phase A [100 μL, 30% CH3CN in H2O (0.1% AcOH, 5.0 mM NH4OAc)].
Media extracts were analyzed by LC/MS/MS with LC separation performed on a Kinetex reversed phase C18 column (50×4.6 mm, 2.6 μm particle size, 100Å). Mobile phase A was composed of 30% (v/v) CH3CN in H2O and Mobile phase B was composed of 50% (v/v) CH3CN in i-PrOH. Both mobile phases also contained 0.1% AcOH and NH4OAc (5 mM) to facilitate ionization and LC separation. […]
MS analysis of prostamides was performed on an Agilent 6460 Triple Quadrupole LC/MS System with operating conditions as follows: gas temperature (300° C.); gas flow (9 L·min^−1); nebulizer (45 psi); sheath gas temperature (300° C.); sheath gas flow (12 L·min^−1); positive and negative capillary voltage (3.5 kV). Analysis was achieved using multiple reaction monitoring with precursor to product ion transitions, optimized collision energies (CE) as listed below and prostamide quantification was achieved by normalized of analyte peaks relative to a deuterated prostamide internal standard (PGE2-EA-d4) to account for differences in extraction efficiency. […]

Experiment [3] concerns the target A-DA lipid probe targets in A549 cells (Homo sapiens, UniProt P07093). As to the kind of experiment: In situ competitive SILAC profiling with A-DA probe in (PMA-stimulated) A549 cells. The settings on record: protein SERPINE2 (P07093); A549 cells; competitor 25 μM.
In experiment [4] the target is T2, A-DA lipid probe targets in A549 cells (Homo sapiens, UniProt P35354).
T2 sequence (P35354 18-604): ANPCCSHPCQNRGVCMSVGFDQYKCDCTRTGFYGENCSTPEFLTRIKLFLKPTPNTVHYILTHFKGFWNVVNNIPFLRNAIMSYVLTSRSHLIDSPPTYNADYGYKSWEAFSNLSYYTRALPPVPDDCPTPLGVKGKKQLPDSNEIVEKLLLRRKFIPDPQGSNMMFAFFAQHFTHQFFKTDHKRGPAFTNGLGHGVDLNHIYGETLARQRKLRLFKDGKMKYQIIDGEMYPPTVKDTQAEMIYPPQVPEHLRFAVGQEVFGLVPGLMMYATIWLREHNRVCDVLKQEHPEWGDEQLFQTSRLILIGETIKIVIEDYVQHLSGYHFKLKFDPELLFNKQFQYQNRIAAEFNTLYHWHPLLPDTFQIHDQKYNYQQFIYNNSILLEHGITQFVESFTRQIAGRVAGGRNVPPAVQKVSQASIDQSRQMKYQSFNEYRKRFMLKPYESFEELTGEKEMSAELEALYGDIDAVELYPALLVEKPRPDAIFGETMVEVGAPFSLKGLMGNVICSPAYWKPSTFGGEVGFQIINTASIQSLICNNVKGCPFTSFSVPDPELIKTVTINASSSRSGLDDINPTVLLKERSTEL
The experiment is described as above. Conditions: PMA-stimulated A549 cells, A-DA 5 μM, drug 25 μM.

Experiment [5] has as its target T3, A-DA lipid probe targets in A549 cells (Homo sapiens, UniProt Q9UH99).
T3 sequence (Q9UH99 1-717): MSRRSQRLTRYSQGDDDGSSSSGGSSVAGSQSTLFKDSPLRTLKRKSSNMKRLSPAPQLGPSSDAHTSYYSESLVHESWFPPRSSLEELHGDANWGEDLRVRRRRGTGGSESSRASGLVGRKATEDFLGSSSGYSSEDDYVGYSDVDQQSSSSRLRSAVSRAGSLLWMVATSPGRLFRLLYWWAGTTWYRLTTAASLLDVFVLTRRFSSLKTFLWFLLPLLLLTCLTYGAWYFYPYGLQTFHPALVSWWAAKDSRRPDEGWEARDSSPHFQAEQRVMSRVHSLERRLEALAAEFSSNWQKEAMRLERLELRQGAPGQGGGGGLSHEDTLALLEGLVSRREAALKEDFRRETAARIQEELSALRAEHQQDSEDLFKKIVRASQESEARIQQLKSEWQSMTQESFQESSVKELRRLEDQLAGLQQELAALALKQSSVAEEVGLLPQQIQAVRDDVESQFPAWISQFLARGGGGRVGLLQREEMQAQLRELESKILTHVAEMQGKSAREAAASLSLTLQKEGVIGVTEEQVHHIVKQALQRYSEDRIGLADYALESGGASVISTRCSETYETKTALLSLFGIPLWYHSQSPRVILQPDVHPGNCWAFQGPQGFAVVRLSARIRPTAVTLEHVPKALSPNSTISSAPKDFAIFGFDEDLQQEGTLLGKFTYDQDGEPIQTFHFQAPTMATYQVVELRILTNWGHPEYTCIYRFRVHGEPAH
Described as above. The settings on record: protein SUN2 (Q9UH99); A549 cells; competitor 25 μM.

Sequence of A-DA lipid probe targets in A549 cells (Homo sapiens, UniProt P07093) (P07093 20-398): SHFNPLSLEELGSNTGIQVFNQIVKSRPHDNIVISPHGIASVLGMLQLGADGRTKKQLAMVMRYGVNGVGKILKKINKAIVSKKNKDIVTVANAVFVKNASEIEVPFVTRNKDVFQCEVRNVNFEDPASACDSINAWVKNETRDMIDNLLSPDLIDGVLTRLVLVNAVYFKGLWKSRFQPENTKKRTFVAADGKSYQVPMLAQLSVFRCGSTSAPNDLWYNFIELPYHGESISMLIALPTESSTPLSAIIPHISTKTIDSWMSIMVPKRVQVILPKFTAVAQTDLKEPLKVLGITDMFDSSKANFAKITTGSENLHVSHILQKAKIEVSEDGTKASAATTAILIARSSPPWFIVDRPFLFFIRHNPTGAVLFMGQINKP
T1 sequence (P45377 whole entry): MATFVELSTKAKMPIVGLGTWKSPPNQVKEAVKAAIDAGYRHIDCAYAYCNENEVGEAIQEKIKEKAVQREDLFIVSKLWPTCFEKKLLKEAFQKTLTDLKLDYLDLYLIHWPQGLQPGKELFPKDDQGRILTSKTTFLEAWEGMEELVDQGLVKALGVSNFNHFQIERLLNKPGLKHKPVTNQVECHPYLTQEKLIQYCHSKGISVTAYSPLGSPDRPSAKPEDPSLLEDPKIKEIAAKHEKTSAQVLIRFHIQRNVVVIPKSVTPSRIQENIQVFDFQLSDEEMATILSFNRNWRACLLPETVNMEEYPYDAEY

Turning to `CS(=O)(=O)c1ccc(C2=C(c3ccccc3)C(=O)OC2)cc1` [rofecoxib, reference compound], in experiment [1], the “A-DA labeling of AKR1B8” value was “reductions”. Besides, the “conversion of exogenous AEA to PGF2α-EA” value in experiment [2] is given as “blocked”. The “SILAC ratio, A-DA competition” value in experiment [3] is on record as 1.1; in experiment [5], 1.2. In addition, in experiment [4], the “competition of A-DA labeling of PTGS2” value is “disrupted”.

The values are drawn from patent US10168342B2, “Lipid probes and uses thereof” (THE SCRIPPS RESEARCH INSTITUTE, priority 2015, dated 2019).
